Experimental data: patent US6207674A, “Dextromethorphan and oxidase inhibitor for weaning patients from narcotics and anti-depressants” (priority 1999, dated 2001)
Where two headings read alike, the source gives them in different places.

Experiments:
[1] = system: cytochrome P450-2D6 enzyme; settings: cited from earlier work
[2] = coadministration with DM; cited from earlier work
[3] = system: morphine and anti-depressant dependence; assay: Patient Number 1, initial 3-week trial of DM alone (neuropathic pain, weaning from morphine and anti-depressants); assay type: in vivo, human
From the text: They took capsules with 30 milligrams of DM, twice each day.

pain = settings: DM combined with morphine; published reports; cited from earlier work
[4] = read-out: Michaelis-Menton inhibition (Ki) value, P450-2D6, in vitro, Inaba et al 1985
[5] = DM 30 mg twice a day, oral, about three weeks, no quinidine

Row | Compound | Ki [1, 4] [µM] | other results
1 | C=C[C@H]1C[N@@]2CC[C@H]1C[C@@H]2[C@@H](O)c1ccnc2ccc(OC)cc12 [Quinidine, quinidine] | 0.06 | effect on DM concentration / level in blood [2]: increase the level of DM in the blood of most patients
2 | COCCc1ccc(OCC(O)CNC(C)C)cc1 (racemic) [metaprolol] | – | Ki [1]: 18 µM
3 | O=C(CCCN1CCC(O)(c2ccc(Cl)cc2)CC1)c1ccc(F)cc1 [haloperidol] | – | Ki [1]: 1 µM
4 | COc1ccc2c(c1)[C@]13CCCC[C@@H]1[C@H](C2)N(C)CC3 [DM, dextromethorphan] | – | symptoms reported at follow-up exam [3, 5]: symptoms were unchanged; use and dosages of morphine and WELLBUTRIN [3, 5]: remained the same; nighttime dosage of ELAVIL at follow-up ([3]; reduced from 250 mg, DM 30 mg twice a day, about three weeks, no quinidine): 100 mg; overall result of DM by itself (summary) ([3]; without an oxidase inhibitor): no substantial benefit; potentiation of pain-relieving activity of morphine (pain): potentiated the pain-relieving activity of morphine
5 | CC(CCc1ccccc1)NCC(O)c1ccc(O)c(C(N)=O)c1 (stereo not shown) [labetalol] | 7 | –
6 | CNCCC(Oc1ccc(C(F)(F)F)cc1)c1ccccc1 (stereo not shown) [Fluoxetine, fluoxetine] | – | effect on DM concentration / level in blood [2]: increase the concentrations of DM
7 | CC(C)NCC(O)COc1cccc2ccccc12 (stereo not shown) [propranolol] | 15 | –
8 | COc1ccc(Cc2nccc3cc(OC)c(OC)cc23)cc1OC [papaverine] | 25 | –
9 | O=c1[nH]c2ccccc2n1CCCN1CCC(n2c(=O)[nH]c3cc(Cl)ccc32)CC1 [domperidone] | 8 | –
10 | C=CCOc1ccccc1OCC(O)CNC(C)C (stereo not shown) [oxprenolol] | 15 | –
11 | C=C[C@H]1C[N@@]2CC[C@H]1C[C@H]2[C@H](O)c1ccnc2ccc(OC)cc12 [quinine] | 15 | –
12 | NC(=O)C1(N2CCCCC2)CCN(CCCC(=O)c2ccc(F)cc2)CC1 [pipamperone] | – | Ki [1]: 4 µM
13 | CNCCC=C1c2ccccc2CCc2ccccc21 [nortriptyline] | 15 | –
14 | Cc1cccc(C)c1OCC(C)N (stereo not shown) [mexiletine] | 30 | –
15 | CN1[C@@H](CC(=O)c2ccccc2)CCC[C@H]1C[C@H](O)c1ccccc1 [lobeline] | 2 | –
16 | CC[C@H]1[C@@H]2C[C@H]3[C@@H]4N(C)c5ccccc5[C@]45C[C@@H]([C@H]2[C@H]5O)N3[C@@H]1O [ajmaline] | 2 | –
17 | CC(C)(C)NC[C@H](O)COc1nsnc1N1CCOCC1 [timolol] | 18 | –
